Drawing on patent publication US20250388589A1, “TRICYCLIC HETEROCYCLIC DERIVATIVES, COMPOSITIONS AND USES THEREOF” (Danatlas Pharmaceuticals Co., Ltd., priority 2022, published 2025), this text covers IC50 for 16 molecules.

Molecules are shown by their SMILES.

The target of test [1] is hPARG (C-terminal His6-tag) (Homo sapiens (Human), UniProt Q86W56). The test is described as follows: PARG Enzymatic Activity Assay (HTRF). Type of test: biochemical. To be noted: hPARG 65 pM final, biotinylated-NAD ribosylated PARP1 8 nM final. Summed up: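 Readout is time-resolved fluorescence at 620 and 665 nm after 60 min RT detection with streptavidin-Eu cryptate and anti-6HIS-XL665; IC50 by 4-parameter fit, 1% DMSO and no-enzyme controls. Reaction: 8 nM final ribosylated PARP1 substrate for 10 min RT, following 60 min RT enzyme (65 pM)–compound preincubation in Tris pH 7.4 buffer with EDTA, DTT, KCl.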
Sequence of hPARG (C-terminal His6-tag) (Q86W56 whole entry): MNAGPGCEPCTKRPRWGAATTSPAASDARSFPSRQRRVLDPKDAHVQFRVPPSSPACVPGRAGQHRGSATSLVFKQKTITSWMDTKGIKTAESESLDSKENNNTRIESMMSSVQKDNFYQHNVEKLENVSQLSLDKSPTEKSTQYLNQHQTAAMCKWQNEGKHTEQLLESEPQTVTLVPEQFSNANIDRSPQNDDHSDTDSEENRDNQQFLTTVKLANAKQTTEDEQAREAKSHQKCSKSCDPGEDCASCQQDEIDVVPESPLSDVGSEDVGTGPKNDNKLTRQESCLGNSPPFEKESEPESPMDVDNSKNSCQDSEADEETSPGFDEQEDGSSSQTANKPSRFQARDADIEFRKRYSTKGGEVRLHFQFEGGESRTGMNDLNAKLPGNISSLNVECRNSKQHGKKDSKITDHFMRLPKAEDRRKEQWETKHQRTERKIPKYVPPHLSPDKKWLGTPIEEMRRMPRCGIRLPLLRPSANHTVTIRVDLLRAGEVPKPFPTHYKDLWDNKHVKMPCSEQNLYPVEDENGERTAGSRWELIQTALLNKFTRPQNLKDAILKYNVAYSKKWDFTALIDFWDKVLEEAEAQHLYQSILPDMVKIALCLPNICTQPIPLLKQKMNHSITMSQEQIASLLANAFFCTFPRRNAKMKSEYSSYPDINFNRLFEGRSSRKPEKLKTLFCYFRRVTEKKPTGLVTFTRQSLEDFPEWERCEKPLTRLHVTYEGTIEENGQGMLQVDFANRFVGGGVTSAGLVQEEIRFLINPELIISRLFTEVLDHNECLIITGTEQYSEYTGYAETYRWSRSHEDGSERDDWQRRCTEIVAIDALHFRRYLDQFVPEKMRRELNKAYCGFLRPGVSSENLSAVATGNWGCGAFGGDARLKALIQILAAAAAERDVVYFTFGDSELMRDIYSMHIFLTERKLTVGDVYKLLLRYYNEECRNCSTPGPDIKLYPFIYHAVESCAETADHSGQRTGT
Background: In TR-FRET formats the signal depends on donor and acceptor labels being close together.

For the next test, the system named is Kuramochi cell line. Description: Cell Viability Assay (Cell Titer-Glo, 7 days). The test is classed as cell-based. To be noted: 168 h, Kuramochi cells, 7 days incubation, read-out: PARG Cell viability (IC50). A digest of the protocol: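 IC50 from a four-parameter fit of CellTiter-Glo luminescence, scaled between DMSO-treated (high) and medium-only (low) wells. Kuramochi cells (400/well, RPMI/10% FBS) exposed 7 days at 37 °C to 9 concentrations, 3-fold steps, in duplicate.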
On the technique in general: In ATP-based viability assays light output follows the ATP content of the culture.

The IC50 is the concentration that inhibits the measured activity by half.

As to `N#CC1CCN(c2ncnc3c2c2ccc(S(=O)(=O)NC4(C#N)CC4)cc2n3-c2nnc(C(F)F)s2)CC1` [Example 49, N-(1-Cyanocyclopropyl)-4-(4-cyanopiperidin-1-yl)-9-(5-(difluoromethyl)-1,3,4-thiadiazol-2-yl)-9H-pyrimido[4,5-b]indole-7-sulfonamide], the IC50 (in test [1]; in the test on Kuramochi cell line) was under 100 nM each time.

As to `C[C@H]1CN(c2ncnc3c2c2ccc(S(=O)(=O)NC4(C#N)CC4)cc2n3-c2nnc(C(F)F)s2)CCO1` [Example 50, (S)-N-(1-Cyanocyclopropyl)-9-(5-(difluoromethyl)-1,3,4-thiadiazol-2-yl)-4-(2-methylmorpholino)-9H-pyrimido[4,5-b]indole-7-sulfonamide], the half-maximal inhibitory concentration (IC50) (in test [1]; in the test on Kuramochi cell line) was under 100 nM throughout.

Consider `N#CC1(NS(=O)(=O)c2ccc3c4c(N5CCC(F)CC5)ncnc4n(-c4nnc(C(F)F)s4)c3c2)CC1` [Example 51, N-(1-Cyanocyclopropyl)-9-(5-(difluoromethyl)-1,3,4-thiadiazol-2-yl)-4-(4-fluoropiperidin-1-yl)-9H-pyrimido[4,5-b]indole-7-sulfonamide], for which the values for the IC50 (in test [1]; in the test with Kuramochi cell line) were under 100 nM and 100 to 1000 nM, respectively.

On to `N#CC1(NS(=O)(=O)c2ccc3c4c(N5CCC(F)(F)CC5)ncnc4n(-c4nnc(C(F)F)s4)c3c2)CC1` [Example 52, N-(1-Cyanocyclopropyl)-9-(5-(difluoromethyl)-1,3,4-thiadiazol-2-yl)-4-(4,4-difluoropiperidin-1-yl)-9H-pyrimido[4,5-b]indole-7-sulfonamide], for which the IC50 (in test [1]; in the test with Kuramochi cell line) was 100 to 1000 nM throughout.

Regarding `N#CC1(NS(=O)(=O)c2ccc3c4c(N5CC[C@@H](O)C5)ncnc4n(-c4nnc(C(F)F)s4)c3c2)CC1` [Example 54, (R)-N-(1-Cyanocyclopropyl)-9-(5-(difluoromethyl)-1,3,4-thiadiazol-2-yl)-4-(3-hydroxypyrrolidin-1-yl)-9H-pyrimido[4,5-b]indole-7-sulfonamide], the IC50 (in test [1]; in the test on Kuramochi cell line) was 100 to 1000 nM each time.

On to `N#CC1(NS(=O)(=O)c2cc3c(cc2F)c2c(N4CCC(O)CC4)ncnc2n3-c2nnc(C(F)F)s2)CC1` [Example 55, N-(1-Cyanocyclopropyl)-9-(5-(difluoromethyl)-1,3,4-thiadiazol-2-yl)-6-fluoro-4-(4-hydroxypiperidin-1-yl)-9H-pyrimido[4,5-b]indole-7-sulfonamide], for which the IC50 (in test [1]; in the test on Kuramochi cell line) was under 100 nM each time.

Take `CN1CCN(c2ncnc3c2c2ccc(S(=O)(=O)NC4(C#N)CC4)cc2n3-c2nnc(C(F)F)s2)CC1` [Example 56, N-(1-Cyanocyclopropyl)-9-(5-(difluoromethyl)-1,3,4-thiadiazol-2-yl)-4-(4-methylpiperazin-1-yl)-9H-pyrimido[4,5-b]indole-7-sulfonamide]: the IC50 (in test [1]; in the test on Kuramochi cell line) was under 100 nM throughout.

For the molecule `CC(C)C(=O)N1C[C@H](C)N(c2ncnc3c2c2ccc(S(=O)(=O)NC4(C#N)CC4)cc2n3-c2nnc(C(F)F)s2)C[C@@H]1C` [Example 57, N-(1-cyanocyclopropyl)-9-(5-(difluoromethyl)-1,3,4-thiadiazol-2-yl)-4-((2S,5S)-4-isobutyryl-2,5-dimethylpiperazin-1-yl)-9H-pyrimido[4,5-b]indole-7-sulfonamide], the IC50 (in test [1]; in the test with Kuramochi cell line) was 100 to 1000 nM throughout.

With `C[C@@H]1CN(c2ncnc3c2c2ccc(S(=O)(=O)NC4(C#N)CC4)cc2n3-c2nnc(C(F)F)s2)C[C@H](C)N1C(=O)C1COC1` [Example 58, N-(1-Cyanocyclopropyl)-9-(5-(difluoromethyl)-1,3,4-thiadiazol-2-yl)-4-((3S,5R)-3,5-dimethyl-4-(oxetane-3-carbonyl)piperazin-1-yl)-9H-pyrimido[4,5-b]indole-7-sulfonamide], the IC50 (in test [1]; with Kuramochi cell line) was under 100 nM throughout.

Take `C[C@@H]1CN(C(=O)N(C)C)[C@@H](C)CN1c1ncnc2c1c1ccc(S(=O)(=O)NC3(C#N)CC3)cc1n2-c1nnc(C(F)F)s1` [Example 59, (2S,5R)-4-(7-(N-(1-Cyanocyclopropyl)sulfamoyl)-9-(5-(difluoromethyl)-1,3,4-thiadiazol-2-yl)-9H-pyrimido[4,5-b]indol-4-yl)-N,N,2,5-tetramethylpiperazine-1-carboxamide]: the IC50 (in test [1]; in the test with Kuramochi cell line) was under 100 nM each time.

On to `CC(C)C(=O)N1CCN(c2ncnc3c2c2ccc(S(=O)(=O)NC4(C#N)CC4)cc2n3-c2nnc(C(F)F)s2)C[C@H]1C` [Example 60, (R)-N-(1-cyanocyclopropyl)-9-(5-(difluoromethyl)-1,3,4-thiadiazol-2-yl)-4-(4-isobutyryl-3-methylpiperazin-1-yl)-9H-pyrimido[4,5-b]indole-7-sulfonamide], for which the IC50 (in test [1]; in the test on Kuramochi cell line) was 100 to 1000 nM throughout.

For `CC(C)C(=O)N1CCN(c2ncnc3c2c2ccc(S(=O)(=O)NC4(C#N)CC4)cc2n3-c2nnc(C(F)F)s2)C[C@@H]1C` [Example 61, (S)-N-(1-cyanocyclopropyl)-9-(5-(difluoromethyl)-1,3,4-thiadiazol-2-yl)-4-(4-isobutyryl-3-methylpiperazin-1-yl)-9H-pyrimido[4,5-b]indole-7-sulfonamide], the IC50 (in test [1]; with Kuramochi cell line) was under 100 nM throughout.

As to `CC(C)C(=O)N1[C@H](C)CN(c2ncnc3c2c2ccc(S(=O)(=O)NC4(C#N)CC4)cc2n3-c2nnc(C(F)F)s2)C[C@@H]1C` [Example 62, N-(1-Cyanocyclopropyl)-9-(5-(difluoromethyl)-1,3,4-thiadiazol-2-yl)-4-((3S,5R)-4-isobutyryl-3,5-dimethylpiperazin-1-yl)-9H-pyrimido[4,5-b]indole-7-sulfonamide], the IC50 (in test [1]; in the test on Kuramochi cell line) was under 100 nM in each case.

For `N#CC1(NS(=O)(=O)c2ccc3c4c(N5CCN(C(=O)N6CCC6)CC5)ncnc4n(-c4nnc(C(F)F)s4)c3c2)CC1` [Example 63, 4-(4-(Azetidine-1-carbonyl)piperazin-1-yl)-N-(1-cyanocyclopropyl)-9-(5-(difluoromethyl)-1,3,4-thiadiazol-2-yl)-9H-pyrimido[4,5-b]indole-7-sulfonamide], the IC50 (in test [1]; with Kuramochi cell line) was under 100 nM in each case.

Turning to `CC(C)C(=O)N1C[C@@H](C)N(c2ncnc3c2c2ccc(S(=O)(=O)NC4(C)CC4)cc2n3-c2nnc(C(F)F)s2)C[C@@H]1C` [Example 64, 9-(5-(Difluoromethyl)-1,3,4-thiadiazol-2-yl)-4-((2R,5S)-4-isobutyryl-2,5-dimethylpiperazin-1-yl)-N-(1-methylcyclopropyl)-9H-pyrimido[4,5-b]indole-7-sulfonamide], the IC50 (in test [1]; in the test with Kuramochi cell line) was under 100 nM in each case.

With `CN1CC(C(=O)N2CCN(c3ncnc4c3c3ccc(S(=O)(=O)NC5(C#N)CC5)cc3n4-c3nnc(C(F)F)s3)CC2)C1` [Example 65, N-(1-Cyanocyclopropyl)-9-(5-(difluoromethyl)-1,3,4-thiadiazol-2-yl)-4-(4-(1-methylazetidine-3-carbonyl)piperazin-1-yl)-9H-pyrimido [4,5-b]indole-7-sulfonamide], the results for the IC50 (in test [1]; in the test on Kuramochi cell line) were under 100 nM and 100 to 1000 nM, respectively.
